Broadly, the IC50 is the concentration that gives 50% inhibition. What is called Ki is a dissociation constant, usually derived from enzyme kinetics or from competition with a known ligand.

SMILES strings stand for the structures.

For 21 compounds, IC50 and Ki results are on record in ChEMBL document CHEMBL1909046, “DrugMatrix in vitro pharmacology data”.

Assay [1] deals with T1, 3-hydroxy-3-methylglutaryl-coenzyme A reductase (Homo sapiens, UniProt P04035).
T1 sequence (P04035 whole entry): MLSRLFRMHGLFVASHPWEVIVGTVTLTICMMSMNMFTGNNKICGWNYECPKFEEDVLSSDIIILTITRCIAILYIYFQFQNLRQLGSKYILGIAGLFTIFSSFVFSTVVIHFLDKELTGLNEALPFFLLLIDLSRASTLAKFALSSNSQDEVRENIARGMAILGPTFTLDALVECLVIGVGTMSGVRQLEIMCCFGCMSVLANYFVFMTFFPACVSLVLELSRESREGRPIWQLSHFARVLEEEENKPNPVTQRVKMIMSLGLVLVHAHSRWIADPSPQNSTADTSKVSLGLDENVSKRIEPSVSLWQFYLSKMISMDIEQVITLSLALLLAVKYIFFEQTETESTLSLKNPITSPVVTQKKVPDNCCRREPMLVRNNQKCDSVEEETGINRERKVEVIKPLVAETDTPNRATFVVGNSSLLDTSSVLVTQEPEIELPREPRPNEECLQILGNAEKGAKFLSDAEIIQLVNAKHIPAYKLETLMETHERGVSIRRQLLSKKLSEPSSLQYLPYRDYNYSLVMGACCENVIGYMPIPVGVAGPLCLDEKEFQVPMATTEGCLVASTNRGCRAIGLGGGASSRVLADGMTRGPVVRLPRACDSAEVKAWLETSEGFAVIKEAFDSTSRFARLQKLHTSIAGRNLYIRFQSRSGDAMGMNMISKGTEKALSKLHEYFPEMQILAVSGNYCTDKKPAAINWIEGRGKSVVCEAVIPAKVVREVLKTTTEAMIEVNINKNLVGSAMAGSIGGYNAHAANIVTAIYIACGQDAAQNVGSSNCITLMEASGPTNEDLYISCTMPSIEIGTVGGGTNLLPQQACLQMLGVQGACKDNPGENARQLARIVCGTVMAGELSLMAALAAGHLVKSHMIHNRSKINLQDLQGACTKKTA
Also on record: species or system Escherichia coli.

Assay [2] deals with T2, Muscarinic acetylcholine receptor M5 (Homo sapiens, UniProt P08912).
T2 sequence (P08912 whole entry): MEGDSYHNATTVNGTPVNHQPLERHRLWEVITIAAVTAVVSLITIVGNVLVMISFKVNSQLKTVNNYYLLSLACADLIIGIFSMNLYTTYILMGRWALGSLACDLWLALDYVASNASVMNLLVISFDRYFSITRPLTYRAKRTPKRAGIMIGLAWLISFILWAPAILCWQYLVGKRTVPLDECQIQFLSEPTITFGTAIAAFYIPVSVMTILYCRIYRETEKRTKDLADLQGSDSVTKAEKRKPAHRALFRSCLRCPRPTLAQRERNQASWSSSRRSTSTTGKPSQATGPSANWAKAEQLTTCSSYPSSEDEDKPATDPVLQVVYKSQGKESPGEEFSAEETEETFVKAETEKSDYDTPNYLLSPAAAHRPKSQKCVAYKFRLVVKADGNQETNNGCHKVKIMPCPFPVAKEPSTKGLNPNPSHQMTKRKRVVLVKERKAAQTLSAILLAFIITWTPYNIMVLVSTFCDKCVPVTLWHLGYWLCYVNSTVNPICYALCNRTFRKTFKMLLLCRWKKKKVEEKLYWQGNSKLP
It counts as cell membranes, CHO-K1, Membrane.

Assay [3] deals with Delta-type opioid receptor (Homo sapiens, UniProt P41143). It counts as cell membranes, HEK293, Membrane.
Another assay concerns the target T3, Cathepsin G (Homo sapiens, UniProt P08311).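 Also: inhibition of Cathepsin G enzyme activity, tested on an AMC-conjugated peptide substrate.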
T3 sequence (P08311 whole entry): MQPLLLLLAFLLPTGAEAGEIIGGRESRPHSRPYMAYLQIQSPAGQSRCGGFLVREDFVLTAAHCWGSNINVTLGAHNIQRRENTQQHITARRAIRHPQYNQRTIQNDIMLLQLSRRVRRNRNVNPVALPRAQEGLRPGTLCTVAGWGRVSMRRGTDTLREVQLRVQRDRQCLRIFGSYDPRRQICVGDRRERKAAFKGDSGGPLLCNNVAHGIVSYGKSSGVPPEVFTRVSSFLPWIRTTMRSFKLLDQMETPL
It counts as tissue-based. To be noted: neutrophil.

Assay [4] deals with Protein kinase C alpha type (Homo sapiens, UniProt P17252). It counts as cell-based. Particulars: sf9.
Assay [5] addresses Mitogen-activated protein kinase 14 (Homo sapiens, UniProt Q16539). More on the design: species or system Escherichia coli.
The target of the next assay is Estrogen receptor beta (Homo sapiens, UniProt Q92731). To be noted: sf9.
Also: in other assays of this panel Not Active means under 50% inhibition at 10 µM.

Sequence of Delta-type opioid receptor (P41143 whole entry): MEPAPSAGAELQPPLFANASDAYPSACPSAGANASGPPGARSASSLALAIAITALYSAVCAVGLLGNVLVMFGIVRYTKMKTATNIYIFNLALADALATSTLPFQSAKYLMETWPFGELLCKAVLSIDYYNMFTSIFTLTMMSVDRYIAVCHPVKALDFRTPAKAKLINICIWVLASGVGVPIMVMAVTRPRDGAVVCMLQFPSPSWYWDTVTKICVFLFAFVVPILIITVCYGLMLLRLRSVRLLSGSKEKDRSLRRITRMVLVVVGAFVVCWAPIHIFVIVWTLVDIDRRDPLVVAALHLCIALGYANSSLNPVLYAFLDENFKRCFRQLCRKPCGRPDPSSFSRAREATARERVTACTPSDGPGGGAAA
Sequence of Estrogen receptor beta (Q92731 whole entry): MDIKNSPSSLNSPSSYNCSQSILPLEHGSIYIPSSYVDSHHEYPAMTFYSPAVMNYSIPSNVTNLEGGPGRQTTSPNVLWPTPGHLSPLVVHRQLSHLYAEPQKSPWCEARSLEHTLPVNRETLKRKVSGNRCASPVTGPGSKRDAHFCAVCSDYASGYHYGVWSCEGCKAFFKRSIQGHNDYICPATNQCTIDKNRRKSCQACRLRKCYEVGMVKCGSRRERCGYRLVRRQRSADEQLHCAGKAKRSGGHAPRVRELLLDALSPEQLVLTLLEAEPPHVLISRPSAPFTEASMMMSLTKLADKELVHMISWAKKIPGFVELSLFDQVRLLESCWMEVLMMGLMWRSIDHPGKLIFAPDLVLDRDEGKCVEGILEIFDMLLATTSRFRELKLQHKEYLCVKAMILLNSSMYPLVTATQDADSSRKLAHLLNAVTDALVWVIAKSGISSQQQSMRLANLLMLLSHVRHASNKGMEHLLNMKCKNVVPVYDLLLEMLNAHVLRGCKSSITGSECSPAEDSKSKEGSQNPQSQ
Sequence of Mitogen-activated protein kinase 14 (Q16539 whole entry): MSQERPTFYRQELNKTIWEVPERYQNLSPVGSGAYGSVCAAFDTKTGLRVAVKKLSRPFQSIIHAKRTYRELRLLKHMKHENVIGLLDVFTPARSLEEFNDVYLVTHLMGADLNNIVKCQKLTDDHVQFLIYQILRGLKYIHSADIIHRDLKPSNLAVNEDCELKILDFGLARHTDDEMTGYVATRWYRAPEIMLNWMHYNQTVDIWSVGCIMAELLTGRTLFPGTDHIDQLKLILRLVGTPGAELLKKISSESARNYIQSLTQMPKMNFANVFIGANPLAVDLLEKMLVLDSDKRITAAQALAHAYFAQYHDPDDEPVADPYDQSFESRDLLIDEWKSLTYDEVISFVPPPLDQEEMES

Consider `CCCCC(=O)N(Cc1ccc(-c2ccccc2-c2nnn[nH]2)cc1)[C@H](C(=O)O)C(C)C`, for which the 50% inhibitory concentration (IC50) entry (in assay [1]; in assay [2] (cho-k1); in assay [3] (hek293); at Cathepsin G; in assay [4]; in assay [5]) was “Not Active” each time. Also, on Estrogen receptor beta, the IC50 entry is “Not Active”.

Take `O=C(O)COc1ccc(C(=O)c2cccs2)c(Cl)c1Cl`: the IC50 result (in assay [1]; in assay [2] (cho-k1); in assay [3] (hek293); at Cathepsin G; in assay [4]; in assay [5]) was “Not Active” each time. The IC50 result at Estrogen receptor beta was “Not Active”.

On to `CN1[C@@H]2CC[C@H]1C[C@@H](OC(c1ccccc1)c1ccccc1)C2` [BENZTROPINE], for which the IC50 entry (in assay [1]; in assay [3] (hek293); on Cathepsin G; in assay [4]; in assay [5]; at Estrogen receptor beta) was “Not Active” throughout.

As for `C[C@@](Cc1ccc(O)c(O)c1)(NN)C(=O)O.O` [CARBIDOPA], the IC50 result (in assay [1]; in assay [2] (cho-k1); in assay [3] (hek293); on Cathepsin G; in assay [4]; in assay [5]) was “Not Active” throughout.

Regarding `CN1CCN(C2=Nc3cc(Cl)ccc3Nc3ccccc32)CC1` [CLOZAPINE], the IC50 entry (in assay [1]; in assay [3] (hek293); against Cathepsin G; in assay [4]; in assay [5]; at Estrogen receptor beta) was “Not Active” throughout.

Consider `CC(C)NC[C@@H](O)COc1cccc2ccccc12` [DEXPROPRANOLOL], for which the IC50 result (in assay [1]; in assay [2] (cho-k1); in assay [3] (hek293); against Cathepsin G; in assay [4]; in assay [5]) was “Not Active” in each case. Moreover, the IC50 entry at Estrogen receptor beta is “Not Active”.

With `CC(C)NC[C@H](O)COc1cccc2ccccc12` [LEVOPROPRANOLOL], the IC50 entry (in assay [1]; in assay [2] (cho-k1); in assay [3] (hek293); against Cathepsin G; in assay [4]; in assay [5]) was “Not Active” throughout. Also, the IC50 entry at Estrogen receptor beta was “Not Active”.

In the case of `O=C(O)CCCCC1CCSS1` (stereo not drawn) [LIPOIC ACID, ALPHA], the IC50 entry (in assay [1]; in assay [2] (cho-k1); in assay [3] (hek293); against Cathepsin G; in assay [4]; in assay [5]) was “Not Active” throughout. Besides, the IC50 entry against Estrogen receptor beta is given as “Not Active”.

For the compound `CN(C)C(=O)C(CCN1CCC(O)(c2ccc(Cl)cc2)CC1)(c1ccccc1)c1ccccc1` [LOPERAMIDE], the IC50 entry (in assay [1]; in assay [2] (cho-k1); at Cathepsin G; in assay [4]; in assay [5]; at Estrogen receptor beta) was “Not Active” throughout.

As to `Clc1ccc(COC(Cn2ccnc2)c2ccc(Cl)cc2Cl)c(Cl)c1` (centres undefined) [MICONAZOLE], the IC50 entry in assay [1] is “Not Active”; in assay [2] (cho-k1) it was “Not Active”; in assay [3] (read-out: IC50), 3.39 µM; on Cathepsin G, “Not Active”; in assay [4] it was “Not Active”; in assay [5], “Not Active”. The IC50 entry at Estrogen receptor beta was “Not Active”. In addition, in assay [3] (read-out: Ki), the Ki was 1.19 µM.

`Oc1ccc2c3c1O[C@H]1[C@@H](O)CC[C@@]4(O)[C@@H](C2)N(CC2CCC2)CC[C@]314` [NALBUPHINE]: the IC50 result (in assay [1]; in assay [2] (cho-k1); on Cathepsin G; in assay [4]; in assay [5]; on Estrogen receptor beta) was “Not Active” throughout.

As to `C[C@]12C=CC(=O)C=C1CC[C@@H]1[C@@H]2C(=O)C[C@@]2(C)[C@H]1CC[C@]2(O)C(=O)CO` [PREDNISONE], the half-inhibitory concentration (IC50) entry (in assay [1]; in assay [2] (cho-k1); in assay [3] (hek293); on Cathepsin G; in assay [4]; in assay [5]) was “Not Active” throughout. Also, the IC50 entry against Estrogen receptor beta is reported as “Not Active”.

For the compound `OCCOCCN1CCN(C2=Nc3ccccc3Sc3ccccc32)CC1` [QUETIAPINE], the IC50 entry (in assay [1]; in assay [3] (hek293); on Cathepsin G; in assay [4]; in assay [5]; at Estrogen receptor beta) was “Not Active” in each case.

Regarding `COC(=O)[C@H]1[C@H]2C[C@@H]3c4[nH]c5cc(OC)ccc5c4CCN3C[C@H]2C[C@@H](OC(=O)c2cc(OC)c(OC)c(OC)c2)[C@@H]1OC` [RESERPINE], the IC50 entry (in assay [1]; in assay [2] (cho-k1); in assay [3] (hek293); at Cathepsin G; in assay [4]; in assay [5]) was “Not Active” in each case.

Regarding `O=C(O)c1ccccc1O` [SALICYLIC ACID], the IC50 result (in assay [1]; in assay [2] (cho-k1); in assay [3] (hek293); against Cathepsin G; in assay [4]; in assay [5]) was “Not Active” throughout.

On to `C[S+]([O-])c1ccc(-c2nc(-c3ccncc3)c(-c3ccc(F)cc3)[nH]2)cc1` (centres undefined) [SB-203580], for which the IC50 result (in assay [1]; in assay [2] (cho-k1); in assay [3] (hek293); at Cathepsin G; in assay [4]; against Estrogen receptor beta) was “Not Active” throughout.

With `CC1CCC(NC(=O)N(CCCl)N=O)CC1` (centres undefined) [SEMUSTINE], the IC50 result (in assay [1]; in assay [2] (cho-k1); in assay [3] (hek293); against Cathepsin G; in assay [4]; in assay [5]) was “Not Active” throughout. The half-maximal inhibitory concentration (IC50) result on Estrogen receptor beta was “Not Active”.

`O=C1C[C@@H]2OCC=C3CN4CC[C@]56c7ccccc7N1[C@H]5[C@H]2[C@H]3C[C@H]46` [STRYCHNINE]: the IC50 entry (in assay [1]; in assay [2] (cho-k1); in assay [3] (hek293); at Cathepsin G; in assay [4]; in assay [5]) was “Not Active” each time.

For `C[N+](C)(C)CCOC(=O)CCC(=O)OCC[N+](C)(C)C.[Cl-].[Cl-]` [SUCCINYLCHOLINE CHLORIDE], the IC50 result (in assay [1]; in assay [2] (cho-k1); in assay [3] (hek293); at Cathepsin G; in assay [4]; in assay [5]) was “Not Active” in each case. For the same compound, the IC50 entry on Estrogen receptor beta was “Not Active”.

Regarding `Nc1ccc(S(=O)(=O)NC(=O)c2ccccc2)cc1` [SULFABENZAMIDE], the half-maximal inhibitory concentration (IC50) result (in assay [1]; in assay [2] (cho-k1); in assay [3] (hek293); on Cathepsin G; in assay [4]; in assay [5]) was “Not Active” each time. For the same compound, on Estrogen receptor beta, the IC50 entry is listed as “Not Active”.

Consider `CCCCCCCCNC(C)C(O)c1ccc(SC(C)C)cc1` (centres undefined) [SULOCTIDIL], for which the IC50 entry in assay [1] was “Not Active”; in assay [2] (read-out: IC50) it was 4.49 µM; in assay [3] (hek293), “Not Active”; against Cathepsin G, “Not Active”; in assay [4], “Not Active”; in assay [5], “Not Active”. In addition, the IC50 entry against Estrogen receptor beta is “Not Active”. Moreover, in assay [2] (read-out: Ki), the Ki worked out at 3.22 µM.
